Patent publication US20220389047A1, “O-GLCNACYLATED PROTEIN-LIKE SUBSTANCE AND FIBROSIS THERAPEUTIC DRUG CONTAINING SAME” (KYUSHU UNIVERSITY, NATIONAL UNIVERSITY CORPORATION, priority 2019, published 2022)

Experiments:
NHDF = experiment: Chemotaxis of NHDF under agarose gel containing the substance; format: cell-based, human; details: FIG. 10, comparison of polymer, monomer, GlcNAc and PBS
Protocol: Using AC-GlcNAc (10-mer) as an O-GlcNAcylated protein-like substance, 250 μg/mL AC-GlcNAc (10-mer) was mixed with an agarose gel to prepare an O-GlcNAcylated protein-like substance-containing agarose gel. In addition, a PBS-containing agarose gel was prepared using PBS instead of the O-GlcNAcylated protein-like substance. A glass plate was placed in a petri dish, each agarose gel was added dropwise onto the glass plate, NHDF was further seeded on the entire glass plate, and incubation was performed for one day.
Next, agarose gels having blending amounts of 50 μg/mL, 100 μg/mL, and 250 μg/mL of the O-GlcNAcylated protein-like substance were prepared, and the chemotaxis of NHDF was evaluated in the same manner as above. […]
Next, the chemotaxis of NHDF by an O-GlcNAcylated protein-like substance was evaluated. The materials used were the O-GlcNAcylated protein-like substance prepared in Polymerization Example 1, the AC-GlcNAc monomer prepared in Polymerization Example 5, and N-acetylglucosamine (GlcNAc) and PBS used in Example 2, and the chemotaxis of NHDF was evaluated in the same manner as above. […]
Next, it was evaluated by the same method as above whether or not there was a difference in the chemotaxis of NHDF due to the difference in the degree of polymerization of the O-GlcNAcylated protein-like substance. […]

NHDF GDF15 = experiment: Western blotting of GDF15 expression in NHDF; format: cell-based, human; details: 50 μg/mL, 24 hours, versus control with nothing added
Protocol: 50 μg/mL of the O-GlcNAcylated protein-like substance, the AC-GlcNAc monomer, or N-acetylglucosamine (GlcNAc) prepared in Polymerization Examples 1 to 5 was added to NHDF, and incubation was performed for 24 hours. After the incubation, the expression of NHDF GDF15 was examined by Western blotting. Furthermore, the control was one to which nothing was added.
Furthermore, 10 μg/mL, 50 μg/mL, and 100 μg/mL of the O-GlcNAcylated protein-like substances (AC-GlcNAc10, mass-average molecular weight: 4,000, number-average molecular weight: 3,100) prepared in Polymerization Example 1 were each added to NHDF, and incubation was performed for 24 hours. After the incubation, the expression of NHDF GDF15 was observed by Western blotting. Furthermore, the control was one to which nothing was added.

SMILES	invasion of cells under the agarose gel (NHDF)	expression of GDF15 (Western blotting) (NHDF GDF15)
CC(=O)N[C@H]1C(O)O[C@H](CO)[C@@H](O)[C@@H]1O (stereo partly shown) [GlcNAc, N-acetylglucosamine]	cells invaded under the agarose gel only with the O-GlcNAcylated protein-like substance of Polymerization Example 1	almost the same effect as the control
C=CC(=O)OCCC(=O)NC1OC(CO)[C@@H](O)C(O)C1NC(C)=O (stereo partly shown) [AC-GlcNAc monomer]	cells invaded under the agarose gel only with the O-GlcNAcylated protein-like substance of Polymerization Example 1	almost the same effect as the control
